Common to all, as to assay: DTP human tumour cell line panel, 48 h
The test system of assay [1] is ACHN renal.
Assay [2] deals with UO-31 renal.
For assay [3], the system named is OVCAR-4 ovarian.
In assay [4] the test system is BT-549 breast.
In assay [5] the test system is CCRF-CEM leukemia.
In assay [6] the test system is NCI-H522 lung.
The test system of assay [7] is SF-295 CNS.
In assay [8] the test system is OVCAR-8 ovarian.
Assay [9] concerns SF-539 CNS.
In assay [10] the test system is SK-MEL-2 melanoma.

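48-hour exposure; five concentrations; linearly interpolated endpoints. TGI: concentration producing complete growth inhibition.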 Some results are limits rather than exact numbers.

In the case of `NC(CCC(=O)O)C(=O)N1CCN(c2nc(N3CCCC3)c3nc(Cl)c(NCc4ccccc4)nc3n2)CC1` (stereo not given), the TGI in assay [1] is 28.8 µM; in assay [2], 21.6 µM; in assay [3], 29.1 µM; in [4], 25.4 µM; in [5] it was 26.2 µM; in assay [6] it was 34.5 µM. The TGI in [7] came to 26.7 µM; in assay [8] it was 38.6 µM; in assay [9], 28.5 µM; in assay [10], 31.5 µM.
On to `O=c1c2cc(S(=O)(=O)O)ccc2nc(COc2ccc(Oc3ccc(Cl)cc3Cl)cc2)n1-c1ccc(Cl)cc1Oc1c(Cl)cccc1Cl`, for which the concentration for total growth inhibition (TGI) in assay [1] is 68.5 µM; in [2] it was 37 µM; in [3], above 100 µM; in assay [4], 61.1 µM; in [5], above 100 µM; in [6] it was 48.4 µM. Also, the TGI worked out at 56.6 µM in [7], 75.1 µM in assay [8], 33.5 µM in [9] and 35.6 µM in assay [10].
In the case of `O=c1[nH]nc(Cc2ccccc2)[nH]1`, the concentration for total growth inhibition (TGI) in assay [1], in assay [2], in assay [3], in [4], in [5] and in assay [6] was above 100 µM throughout. Moreover, the concentration for total growth inhibition (TGI) in [7], in [8], in assay [9] and in assay [10] was above 100 µM throughout.
In the case of `O=C(Cc1ccccc1)N/N=C/c1ccccc1O`, the TGI in assay [1] is 61 µM; in assay [2], 72.9 µM; in assay [3] it was above 100 µM; in assay [4], above 100 µM; in [5], above 100 µM; in [6], above 100 µM. In addition, the TGI in assay [7] was 85.2 µM; in [8], above 100 µM; in [9] it was above 100 µM; in assay [10], above 100 µM.
With `C=C1CC[C@H](O)C(C)(C)[C@@H]1CC/C(C)=C/CC/C=C(\C)CC/C=C(\C)CCC=C(C)C`, the TGI in [1], in assay [2], in assay [3], in assay [4], in [5] and in [6] was above 100 µM each time. In addition, the concentration for total growth inhibition (TGI) in [7], in [8], in assay [9] and in [10] was above 100 µM throughout.
For `CC1ON2CCCC2[C@H]1C(=O)N1C2CC3CCC2(CS1(=O)=O)C3(C)C` (stereo not given in full), the TGI in assay [1], in assay [2], in [3], in [4], in assay [5] and in [6] was above 100 µM in each case. In addition, the TGI in [7], in assay [8], in [9] and in assay [10] was above 100 µM in each case.
In the case of `CCOP(=O)(O)C1C(CO)OC(n2ccc(=O)[nH]c2=O)C1O` (stereo not given), the TGI in assay [1], in assay [2], in assay [3], in assay [4], in assay [5] and in [6] was above 100 µM in each case. Besides, the TGI in assay [7], in assay [8], in assay [9] and in assay [10] was above 100 µM in each case.
As for `CCn1c(SCC(=O)NNC(=S)Nc2ccc(C)cc2)nc2ccccc2c1=O`, the TGI in [1] was above 100 µM; in assay [2] it was 55.3 µM; in [3], above 100 µM; in assay [4] it was above 100 µM; in assay [5], above 100 µM; in assay [6], above 100 µM. Moreover, the TGI in [7], in [8], in assay [9] and in [10] was above 100 µM throughout.
As for `COC(=O)C(COC(C)=O)NC(=O)/C=C/c1ccc(O)c(OC(C)=O)c1` (stereo not given), the TGI in [1] is above 100 µM; in assay [2], above 100 µM; in assay [3] it was above 100 µM; in assay [4] it was above 100 µM; in [5], above 100 µM; in [6], 40.4 µM. Besides, the TGI was above 100 µM in [7], above 100 µM in assay [8], 53.9 µM in assay [9] and above 100 µM in assay [10].
Take `O=c1[nH]c(Nc2nc3ccccc3[nH]2)nc2c1CCC2`: the TGI in assay [1], in [2], in assay [3], in assay [4], in assay [5] and in [6] was above 100 µM throughout. The TGI in [7], in assay [8], in [9] and in assay [10] was above 100 µM in each case.
As to `Cc1cccc2c(N)c3cccc(C(=O)NCC[N+](C)(C)Cc4c([N+](=O)[O-])ncn4C)c3nc12`, the total growth inhibition concentration (TGI) in assay [1] is above 39.5 µM; in assay [2] it was 69.1 µM; in assay [3] it was above 72.5 µM; in assay [4], above 100 µM; in assay [5] it was above 100 µM; in assay [6], above 52.9 µM. Moreover, the total growth inhibition concentration (TGI) in assay [7] was above 100 µM; in assay [8] it was above 95.5 µM; in assay [9], 36.9 µM; in [10], above 100 µM.
In the case of `COc1ccc(O)c(/C(C)=N/NC(=S)N(C)C)c1`, the TGI in [1] is above 100 µM; in assay [2] it was above 100 µM; in assay [3] it was 54.3 µM; in [4] it was above 100 µM; in [5], above 100 µM; in [6], above 100 µM. For the same compound, the TGI in [7], in assay [8], in assay [9] and in [10] was above 100 µM in each case.
For `CC12CCC([C@H](C(O)C3CCCCC3)C1=O)C2(C)C` (stereo not given in full), the TGI in assay [1], in assay [2], in [3], in assay [4], in assay [5] and in assay [6] was above 100 µM each time. Also, the TGI in assay [7], in [8], in assay [9] and in assay [10] was above 100 µM each time.
On to `COC(=O)C1C(=O)C=CN([C@H](C)c2ccccc2)[C@@H]1Cc1ccc(OC)c(OCc2ccccc2)c1I` (stereo not given in full), for which the TGI is 70 µM in assay [1]; 26.3 µM in [2]; 79.9 µM in assay [3]; 38 µM in assay [4]; above 100 µM in [5]; 36.8 µM in assay [6]. Also, the TGI was 35.5 µM in assay [7], above 100 µM in [8], 36.4 µM in [9] and 40 µM in [10].
As to `NC(N)=N/N=C/c1c(-c2cccc([N+](=O)[O-])c2)nc2n1CCS2`, the TGI was 44.2 µM in [1]; 30.6 µM in assay [2]; 29.8 µM in assay [3]; 32.2 µM in assay [4]; above 100 µM in [5]; 32.2 µM in assay [6]. For the same compound, the TGI in assay [7] turned out to be 54.6 µM; in [8], 39.3 µM; in assay [9], 43.7 µM; in [10], 34 µM.
Take `COc1cc(OC)c2c(=O)c(OC)c(-c3ccc4c(c3)OCO4)oc2c1`: the TGI in assay [1] was above 100 µM; in [2], above 100 µM; in assay [3], above 100 µM; in assay [4], above 100 µM; in assay [5] it was above 100 µM; in assay [6], 92.3 µM. Moreover, the TGI in assay [7] was 61.7 µM; in [8] it was above 100 µM; in assay [9] it was 44.1 µM; in assay [10], 42.5 µM.
As to `NCCCCC(N)C(=O)NCCNc1ccc(NCCNC(=O)C(N)CCCCN)c2c1C(=O)c1ccccc1C2=O` (stereo not given), the concentration for total growth inhibition (TGI) was above 100 µM in assay [1]; above 100 µM in assay [2]; above 100 µM in [3]; 20.1 µM in assay [4]; above 100 µM in assay [5]; above 100 µM in assay [6]. Also, the concentration for total growth inhibition (TGI) in assay [7] is above 100 µM; in assay [8], above 69 µM; in [9] it was above 100 µM; in assay [10], above 100 µM.
Take `O=C1N[C@@H](c2c[nH]c3cc(Br)ccc23)C(=O)N[C@H]1c1c[nH]c2cc(Br)ccc12`: the TGI in assay [1], in [2], in assay [3], in assay [4], in [5] and in [6] was above 100 µM in each case. Besides, the TGI in [7], in assay [8], in assay [9] and in assay [10] was above 100 µM in each case.
Take `CN(C)CCCN1c2ccccc2Sc2cnccc21`: the TGI in assay [1], in assay [2], in assay [3], in [4], in [5] and in [6] was above 100 µM throughout. In addition, the TGI in [7] is above 100 µM; in assay [8], above 100 µM; in assay [9], above 100 µM; in assay [10], 94 µM.
For the compound `COc1ccc(CCN2CCN(CCc3ccc(OC)cc3)CC2)cc1`, the TGI in [1], in assay [2], in assay [3], in assay [4], in [5] and in assay [6] was above 100 µM in each case. Further, the TGI in [7], in [8], in assay [9] and in assay [10] was above 100 µM throughout.
Take `Cc1ccc(/C=C2\CCC/C(=C\c3ccc(O)c(CN4CCCCC4)c3)C2=O)cc1`: the TGI in assay [1] is 18.6 µM; in assay [2], 23.3 µM; in [3], 33 µM; in assay [4], 23.9 µM; in assay [5], above 29.1 µM; in assay [6] it was 17.9 µM. Further, the TGI in assay [7] was 26 µM; in assay [8], 8.37 µM; in [9], 26.6 µM; in [10] it was above 54.8 µM.
With `CC(=O)OC1(C)C=CC(=O)C=C1`, the TGI in assay [1] is 34.7 µM; in assay [2], 46.4 µM; in [3], above 100 µM; in assay [4], above 100 µM; in [5], above 100 µM; in assay [6], 24.2 µM. Further, the TGI in [7] was above 100 µM; in [8] it was above 100 µM; in assay [9], above 100 µM; in assay [10] it was 98.4 µM.
For the compound `O=C1CCCC2(c3ccccc3)Nc3ccccc3N12` (stereo not given), the TGI in assay [1], in assay [2], in [3], in assay [4], in assay [5] and in assay [6] was above 100 µM throughout. Besides, the TGI in assay [7], in assay [8], in assay [9] and in [10] was above 100 µM each time.
As to `CN1C2CCC1CC(CCNC(c1ccccc1)c1ccccc1)C2` (stereo not given), the TGI in [1] was above 100 µM; in assay [2], 56.5 µM; in [3], above 100 µM; in [4], above 100 µM; in assay [5], above 100 µM; in [6] it was 85.7 µM. Moreover, the concentration for total growth inhibition (TGI) in assay [7] was 49 µM; in [8], above 100 µM; in assay [9], 35.7 µM; in assay [10], 31.4 µM.
As for `Cc1[nH]n(C2=NCCN2)c(=O)c1Cc1ccccc1`, the TGI in assay [1], in assay [2], in [3], in assay [4], in [5] and in assay [6] was above 100 µM in each case. In addition, the TGI in assay [7], in assay [8], in assay [9] and in assay [10] was above 100 µM throughout.
As to `CCOC(=O)C(O)(NC(=O)c1ccc(F)cc1)C(F)(F)F` (stereo not given), the total growth inhibition concentration (TGI) in [1], in assay [2], in assay [3], in assay [4], in assay [5] and in assay [6] was above 100 µM throughout. Moreover, the TGI in [7], in assay [8], in assay [9] and in assay [10] was above 100 µM throughout.
Turning to `CN(/N=C/c1ccc(OCc2cccc(COc3ccc(C=O)cc3)n2)cc1)c1cnn(-c2ccc(Cl)cc2Cl)c(=O)c1Cl`, the TGI in assay [1], in [2], in [3], in assay [4], in assay [5] and in assay [6] was above 100 µM in each case. The TGI was above 100 µM in assay [7], above 100 µM in assay [8], 46.9 µM in [9] and above 100 µM in assay [10].

For the origin of these results see PubChem BioAssay (NCI).
